This is an account of results in patent publication US20230399342A1 (Incyte Corporation, priority 2022, published 2023).

Assay [1] concerns the target DGKα (Homo sapiens (Human), UniProt P23743). The experiment in a line: In vitro DGKα inhibition assay (ADP-Glo). The note with it: His-tagged human recombinant enzyme, 0.1 nM DGKα, 50 μM ATP, 20 μM DLG, 90 minute incubation. The format is biochemical. How it is done: (§1) The DGKα and DGKξ biochemical reactions were performed using His-tagged human recombinant enzymes (Signal Chem, DGKα, #D21-1OBH; DGKξ, #D30-10H)) and DLG (Dilauroyl-sn-glycerol) lipid substrate (Signal Chem, #D430-59). ADP-Glo assay was performed using ADP-Glog™ kinase Assay kit (Promega, #V9104). The reactions were carried out in assay buffer containing 40 mM Tris, pH 7.5, 0.1% CHAPS, 0.1% Prionex, 40 mM NaCl, 5 mM MgCl2, 1 mM CaCl2, and 1 mM DTT. DGKα reactions contained 0.1 nM DGKα, 50 μM ATP, and 20 μM DLG. And DGKC reactions contained 0.4 nM DGK, 30 μM ATP, and 20 μM DLG.
(§2) For compound inhibition studies, 40 nL test compound in DMSO was added to wells of white polystyrene plates in 384-well (Greiner, #784075) or 1536-well format (Greiner, #782075). Compounds were added with top concentration of 2 mM with 11 point, 3-fold dilution series. Enzyme solution (contains 2×DGK enzyme concentration in Ix assay buffer) was added to the plate in 2 μL/well volume, followed by 2 μL/well of substrate solution (contains 2×concentration of ATP and DLG substrate in Ix assay buffer). Plates were then centrifuged for 1 min at 1200 RPM and sealed or lidded. For 4 μL reaction volume, test compounds were therefore diluted 100× to final top concentration of 20 μM. After 90 minute incubation, reactions were quenched by addition of 2 μL/well Promega ADP-Glo Reagent, followed by centrifugation and lidding. After 60 min incubation, 2 μL/well Promega Kinase Detection Reagent was added, plates centrifuged, and incubated for 30 min. Plates were then read using Luminescence method on BMG PHERAstar FSX plate reader. Percent inhibition was calculated and IC50s were determined using 4-parameter fit in Genedata Screener. Labcyte Echo acoustic dispenser was used for compound addition, and Formulatrix Tempest liquid handler was used for all reagent dispenses.

Assay [2] concerns the target DGKζ (Homo sapiens (Human), UniProt Q13574). The assay can be described thus: In vitro DGKζ inhibition assay (ADP-Glo). The format is biochemical. The note with it: His-tagged human recombinant enzyme, 0.4 nM DGK, 30 μM ATP, 20 μM DLG, 90 minute incubation. How it is done: as §1, §2
Background: In ADP-Glo the light output rises with the ADP produced.

Sequence of DGKζ (Q13574 whole entry): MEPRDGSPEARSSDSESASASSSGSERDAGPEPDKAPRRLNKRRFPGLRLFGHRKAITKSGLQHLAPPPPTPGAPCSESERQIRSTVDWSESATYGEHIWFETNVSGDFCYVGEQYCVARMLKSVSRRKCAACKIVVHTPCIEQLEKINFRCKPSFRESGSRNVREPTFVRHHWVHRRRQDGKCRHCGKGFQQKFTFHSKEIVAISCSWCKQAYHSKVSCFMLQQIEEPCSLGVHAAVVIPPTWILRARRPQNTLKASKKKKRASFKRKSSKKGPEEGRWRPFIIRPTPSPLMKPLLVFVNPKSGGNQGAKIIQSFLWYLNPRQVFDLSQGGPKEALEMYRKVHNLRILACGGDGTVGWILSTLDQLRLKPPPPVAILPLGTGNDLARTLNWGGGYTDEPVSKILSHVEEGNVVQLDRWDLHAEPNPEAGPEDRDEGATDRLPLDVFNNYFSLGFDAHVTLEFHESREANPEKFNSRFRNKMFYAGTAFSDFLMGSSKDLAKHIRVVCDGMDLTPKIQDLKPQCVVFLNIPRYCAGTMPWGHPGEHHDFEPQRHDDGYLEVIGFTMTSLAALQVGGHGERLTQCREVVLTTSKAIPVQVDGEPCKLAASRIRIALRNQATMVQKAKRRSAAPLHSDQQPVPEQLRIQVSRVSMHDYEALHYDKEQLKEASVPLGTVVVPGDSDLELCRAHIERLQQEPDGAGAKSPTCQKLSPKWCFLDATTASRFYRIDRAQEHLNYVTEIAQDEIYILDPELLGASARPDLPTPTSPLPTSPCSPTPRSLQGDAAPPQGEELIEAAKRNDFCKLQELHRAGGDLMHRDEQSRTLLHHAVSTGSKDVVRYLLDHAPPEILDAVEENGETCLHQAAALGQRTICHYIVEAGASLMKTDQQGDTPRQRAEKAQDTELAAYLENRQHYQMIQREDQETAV
Sequence of DGKα (P23743 whole entry): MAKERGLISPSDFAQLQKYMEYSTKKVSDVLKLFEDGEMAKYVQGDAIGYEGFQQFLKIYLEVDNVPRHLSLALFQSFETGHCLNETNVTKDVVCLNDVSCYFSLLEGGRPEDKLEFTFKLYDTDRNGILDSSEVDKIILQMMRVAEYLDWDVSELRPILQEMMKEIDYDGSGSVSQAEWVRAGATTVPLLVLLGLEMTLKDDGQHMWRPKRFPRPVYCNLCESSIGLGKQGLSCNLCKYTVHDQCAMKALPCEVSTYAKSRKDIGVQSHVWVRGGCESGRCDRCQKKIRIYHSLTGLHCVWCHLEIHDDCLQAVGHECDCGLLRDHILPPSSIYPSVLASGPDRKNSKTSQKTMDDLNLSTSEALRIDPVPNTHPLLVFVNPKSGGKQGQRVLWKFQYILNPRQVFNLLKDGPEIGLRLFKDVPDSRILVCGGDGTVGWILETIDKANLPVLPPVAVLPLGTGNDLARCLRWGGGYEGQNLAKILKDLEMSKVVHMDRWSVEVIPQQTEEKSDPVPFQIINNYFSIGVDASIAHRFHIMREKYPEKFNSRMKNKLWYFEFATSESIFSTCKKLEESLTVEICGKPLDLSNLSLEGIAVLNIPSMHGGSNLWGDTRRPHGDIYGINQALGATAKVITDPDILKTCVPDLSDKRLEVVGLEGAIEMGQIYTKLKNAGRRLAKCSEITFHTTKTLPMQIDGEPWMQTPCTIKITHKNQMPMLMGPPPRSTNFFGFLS

As usually defined, the IC50 is the midpoint of a concentration-inhibition curve. Take `Cc1nc2c(N3C[C@@H](C)N(C(c4ccc(C(F)(F)F)cc4)C4CC(F)(F)C4)C[C@@H]3C)nc3nncn3c2n1C[C@@H]1CCCO1` (single isomer, unassigned) [Example 43]: the IC50 in assay [1] and in assay [2] was ≤ 20 nM in each case.
Consider `Cc1nc2c(N3C[C@@H](C)N(C(c4ccc(F)c(Cl)c4)C4CC(F)(F)C4)C[C@@H]3C)nc3nncn3c2n1C[C@@H]1CCCO1` (single isomer, unassigned) [Example 44], for which the IC50 in assay [1] and in assay [2] was ≤ 20 nM each time.
Turning to `Cc1nc2c(N3C[C@@H](C)N(C(c4ccc(C(F)(F)F)c(F)c4)C4CC(F)(F)C4)C[C@@H]3C)nc3nncn3c2n1C[C@@H]1CCCO1` (single isomer, unassigned) [Example 45], the concentration for half-maximal inhibition (IC50) in assay [1] and in assay [2] was ≤ 20 nM in each case.
For `Cc1nc2c(N3C[C@@H](C)N(C(c4ccc(Cl)c(F)c4)C4CC(F)(F)C4)C[C@@H]3C)nc3nncn3c2n1C[C@@H]1CCCO1` (single isomer, unassigned) [Example 50], the IC50 in assay [1] and in assay [2] was ≤ 20 nM throughout.
Turning to `C[C@@H]1CN(c2nc3nncn3c3c2ncn3CCN(C)C)[C@@H](C)CN1C(c1ccc(Cl)cc1)C1CC(F)(F)C1` (single isomer, unassigned) [Example 64], the IC50 in assay [1] and in assay [2] was ≤ 20 nM throughout.
With `Cc1nc2c(N3C[C@@H](C)N(C(c4ccc(C(F)F)c(F)c4)C(C)C)C[C@@H]3C)nc3nncn3c2n1C[C@@H]1CCCO1` (single isomer, unassigned) [Example 81], the half-inhibitory concentration (IC50) in assay [1] and in assay [2] was ≤ 20 nM in each case.
Regarding `Cc1nc2c(N3C[C@@H](C)N([C@@H](c4ccc(F)c(Cl)c4)C(C)C)C[C@@H]3C)nc3nncn3c2n1C[C@@H]1CCCO1` (single isomer, unassigned) [Example 87], the IC50 in assay [1] and in assay [2] was ≤ 20 nM in each case.
For `Cc1nc2c(N3C[C@@H](C)N([C@H](c4ccc(F)cc4)c4ccc(F)c(C(F)(F)F)n4)C[C@@H]3C)nc3nncn3c2n1C[C@@H]1CCCO1` (single isomer, unassigned) [Example 104], the IC50 in assay [1] and in assay [2] was ≤ 20 nM each time.
On to `CC[C@@H]1CN(c2nc3nncn3c3c2nnn3C[C@@H]2CCCO2)[C@@H](C)CN1C(c1ccc(F)cc1)C1CC(F)(F)C1` (single isomer, unassigned) [Example 120], for which the half-maximal inhibitory concentration (IC50) in assay [1] and in assay [2] was ≤ 20 nM each time.
On to `Cc1nc2c(N3C[C@@H](C)N(C(c4ccc(Cl)cc4)c4ccc(F)c(Cl)c4)C[C@@H]3C)nc3nncn3c2n1C[C@@H]1CCCO1` (single isomer, unassigned) [Example 140], for which the 50% inhibitory concentration (IC50) in assay [1] and in assay [2] was ≤ 20 nM throughout.
In the case of `Cc1nc2c(N3C[C@@H](C)N(C(c4ccc(Br)cc4)c4ccc(F)c(Cl)c4)C[C@@H]3C)nc3nncn3c2n1C[C@@H]1CCCO1` (single isomer, unassigned) [Example 141], the half-inhibitory concentration (IC50) in assay [1] and in assay [2] was ≤ 20 nM in each case.
With `C[C@@H]1CN(c2nc3nncn3c3scnc23)[C@@H](C)CN1C(c1ccc(F)cc1)c1ccc(F)cc1` [Example 1, 4-((2S,5R)-4-(Bis(4-fluorophenyl)methyl)-2,5-dimethylpiperazin-1-yl)thiazolo[4,5-e][1,2,4]triazolo[4,3-a]pyrimidine], the half-inhibitory concentration (IC50) is ≤ 20 nM in assay [1] and 20 to 200 nM in assay [2].
The like results for `Cc1nnc2nc(N3C[C@@H](C)N(C(c4ccc(F)cc4)c4ccc(F)cc4)C[C@@H]3C)c3ncsc3n12` [Example 2, 4-((2S,5R)-4-(Bis(4-fluorophenyl)methyl)-2,5-dimethylpiperazin-1-yl)-8-methylthiazolo[4,5-e][1,2,4]triazolo[4,3-a]pyrimidine] were, in that order, ≤ 20 nM and 200 to 2000 nM.
Regarding `C[C@@H]1CN(c2nc3nncn3c3sc(C(F)F)nc23)[C@@H](C)CN1C(c1ccc(F)cc1)c1ccc(F)cc1` [Example 3, 4-((2S,5R)-4-(Bis(4-fluorophenyl)methyl)-2,5-dimethylpiperazin-1-yl)-2-(difluoromethyl)thiazolo[4,5-e][1,2,4]triazolo[4,3-a]pyrimidine], the IC50 in assay [1] is ≤ 20 nM; in assay [2] it was 200 to 2000 nM.
In the same order, the values of `C[C@@H]1CN(c2nc3nncn3c3sc(CCC#N)nc23)[C@@H](C)CN1C(c1ccc(F)cc1)c1ccc(F)cc1` [Example 4, 3-(4-((2S,5R)-4-(Bis(4-fluorophenyl)methyl)-2,5-dimethylpiperazin-1-yl)thiazolo[4,5-e][1,2,4]triazolo[4,3-a]pyrimidin-2-yl)propanenitrile] are ≤ 20 nM and 200 to 2000 nM.
The like results for `C[C@@H]1CN(c2nc3nncn3c3sc(-c4cn[nH]c4)nc23)[C@@H](C)CN1C(c1ccc(F)cc1)c1ccc(F)cc1` [Example 5, 4-((2S,5R)-4-(Bis(4-fluorophenyl)methyl)-2,5-dimethylpiperazin-1-yl)-2-(1H-pyrazol-4-yl)thiazolo[4,5-e][1,2,4]triazolo[4,3-a]pyrimidine] were, in that order, ≤ 20 nM and > 2000 nM.
In the same order, the values of `C[C@@H]1CN(c2nc3nncn3c3c2cnn3C)[C@@H](C)CN1C(c1ccc(F)cc1)c1ccc(F)cc1` [Example 6, 4-((2S,5R)-4-(Bis(4-fluorophenyl)methyl)-2,5-dimethylpiperazin-1-yl)-1-methyl-1H-pyrazolo[4,3-e][1,2,4]triazolo[4,3-a]pyrimidine] are ≤ 20 nM and > 2000 nM.
For `C[C@@H]1CN(c2nc3nncn3c3ccoc23)[C@@H](C)CN1C(c1ccc(F)cc1)c1ccc(F)cc1` [Example 7, 5-((2S,5R)-4-(Bis(4-fluorophenyl)methyl)-2,5-dimethylpiperazin-1-yl)furo[2,3-e][1,2,4]triazolo[4,3-a]pyrimidine], the IC50 in assay [1] was ≤ 20 nM; in assay [2], > 2000 nM.
In the case of `C[C@@H]1CN(c2nc3nncn3c3ccsc23)[C@@H](C)CN1C(c1ccc(F)cc1)c1ccc(F)cc1` [Example 8, 5-((2S,5R)-4-(Bis(4-fluor ophenyl)methyl)-2,5-dimethylpiperazin-1-yl)thieno[2,3-e][1,2,4]triazolo[4,3-a]pyrimidine], the half-inhibitory concentration (IC50) in assay [2] lay within 200 to 2000 nM.
For `CCn1ccc2c1c(N1C[C@@H](C)N(C(c3ccc(F)cc3)c3ccc(F)cc3)C[C@@H]1C)nc1nncn12` [Example 10, 5-((2S,5R)-4-(Bis(4-fluorophenyl)methyl)-2,5-dimethylpiperazin-1-yl)-6-ethyl-6H-pyrrolo[2,3-e][1,2,4]triazolo[4,3-a]pyrimidine], the half-inhibitory concentration (IC50) was ≤ 20 nM in assay [1] and > 2000 nM in assay [2].
The like results for `C[C@@H]1CN(c2cc3nncn3c3ccsc23)[C@@H](C)CN1C(c1ccc(F)cc1)c1ccc(F)cc1` [Example 11, 5-((2S,5R)-4-(Bis(4-fluorophenyl)methyl)-2,5-dimethylpiperazin-1-yl)thieno[2,3-e][1,2,4]triazolo[4,3-a]pyridine] were, in that order, ≤ 20 nM and > 2000 nM.
In the same order, the values of `Cc1nn(C)c2c1c(N1C[C@@H](C)N(C(c3ccc(F)cc3)c3ccc(F)cc3)C[C@@H]1C)cc1nncn12` [Example 12, 4-((2S,5R)-4-(Bis(4-fluorophenyl)methyl)-2,5-dimethylpiperazin-1-yl)-1,3-dimethyl-1H-pyrazolo[4,3-e][1,2,4]triazolo[4,3-a]pyridine] are ≤ 20 nM and > 2000 nM.
